Patent US20260217765A1, “NOVEL ANTIMICROBIAL PEPTIDE DESIGNED FROM DUCK-DERIVED ANTIMICROBIAL PEPTIDE ANDUSE THEREOF” (INDUSTRY-ACADEMIC COOPERATION FOUNDATION, CHOSUN UNIVERSITY, priority 2023, published 2026)
Converted amounts (≈) assume the structure as drawn. Peptide text beside a SMILES is read from it.

How the values were obtained:
[1] = system: Acinetobacter baumannii KCTC 2508; type: cell-based; details: KCTC 2508, 24 h
Experimental: Specifically, among the bacterial strains listed in Table 2, those known to form biofilms well (Acinetobacter baumannii KCTC 2508, Acinetobacter baumannii isolate 10, and isolate 14) were cultured in the appropriate media to the mid-log phase and diluted to a cell concentration of 5×10^4 cells/100 µL, followed by inoculation into microplates (SPL). Subsequently, the peptides prepared in <Example 1> were serially 10-fold diluted with 10 mM sodium phosphate buffer (pH 7.2), and 10 μL of each dilution was added to each well. The plates were then incubated at 37° C. for 24 hours. After completely removing the supernatant, the plates were fixed with 100% methanol for 15 minutes, stained with crystal violet staining solution for 1 hour, washed three times, and then the stain was solubilized with 95% ethanol. Absorbance was measured at 595 nm using a microplate reader to determine the MBIC values for each bacterial strain.

[2] = system: Acinetobacter baumannii_isolate 6 (antibiotic-resistant); type: cell-based, Acinetobacter baumannii; details: isolate 6 (antibiotic-resistant)
Summary of the method: (§1)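 Strains grown to mid-log phase in suitable media, diluted to 2×10^4 cells/100 μL, exposed to serial 2-fold peptide dilutions at 37° C for 18 hours. MIC, the lowest concentration preventing visible growth, was read by absorbance at 600 nm.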

[3] = system: Acinetobacter baumannii_isolate 12 (antibiotic-resistant); type: cell-based, Acinetobacter baumannii; details: isolate 12 (antibiotic-resistant)
Summary of the method: as §1

[4] = system: Acinetobacter baumannii_isolate 22 (antibiotic-resistant); type: cell-based, Acinetobacter baumannii; details: isolate 22 (antibiotic-resistant)
Summary of the method: as §1

[5] = system: Acinetobacter baumannii_isolate 23 (antibiotic-resistant); type: cell-based, Acinetobacter baumannii; details: isolate 23 (antibiotic-resistant)
Summary of the method: as §1

[6] = system: Acinetobacter baumannii_isolate 17 (antibiotic-resistant); type: cell-based, Acinetobacter baumannii; details: isolate 17 (antibiotic-resistant)
Summary of the method: as §1

[7] = system: Acinetobacter baumannii_isolate 24 (antibiotic-resistant); type: cell-based, Acinetobacter baumannii; details: isolate 24 (antibiotic-resistant)
Summary of the method: as §1

[8] = system: Acinetobacter baumannii_isolate 18 (antibiotic-resistant); type: cell-based, Acinetobacter baumannii; details: isolate 18 (antibiotic-resistant)
Summary of the method: as §1

[9] = system: Acinetobacter baumannii_isolate 26 (antibiotic-resistant); type: cell-based, Acinetobacter baumannii; details: isolate 26 (antibiotic-resistant)
Summary of the method: as §1

[10] = system: Acinetobacter baumannii_isolate 14 (antibiotic-resistant); type: cell-based, Acinetobacter baumannii; details: isolate 14 (antibiotic-resistant)
Summary of the method: as §1

[11] = system: Acinetobacter baumannii_isolate 4 (antibiotic-resistant); type: cell-based, Acinetobacter baumannii; details: isolate 4 (antibiotic-resistant)
Summary of the method: as §1

[12] = system: Acinetobacter baumannii_isolate21 (antibiotic-resistant); type: cell-based, Acinetobacter baumannii; details: isolate21 (antibiotic-resistant)
Summary of the method: as §1

[13] = system: Acinetobacter baumannii_isolate 13 (antibiotic-resistant); type: cell-based, Acinetobacter baumannii; details: isolate 13 (antibiotic-resistant)
Summary of the method: as §1

plasmid DNA (pRSETB) = assay: Binding to bacterial DNA, agarose gel electrophoresis; details: 260 ng plasmid DNA, DNA/peptide ratios 1:1 to 1:4, 37° C. 10 minutes
Experimental: Accordingly, to further elucidate the mechanism by which these novel peptides exert antimicrobial activity, it was examined whether the novel peptides dCATH-A6 and dCATH-A7 bind to intracellular bacterial DNA using electrophoresis.
Specifically, 260 ng of plasmid DNA (pRSETB) was reacted with each peptide at various ratios (lanes 1 through […] represent DNA only, 1:1, 1:2, 1:3, and 1:4 DNA/peptide ratios, respectively) at 37° C. for 10 minutes. The samples were then subjected to electrophoresis on a 1% agarose gel, stained with ethidium bromide (EtBr), and visualized under UV light.

[14] = system: Acinetobacter baumannii membrane; assay: Flow cytometry, propidium iodide, action on bacterial membrane; type: cell-based; details: peptide at twice the MIC, 37° C. 10 minutes
Experimental: To determine whether the peptides prepared in <Example 1> act on bacterial membranes, the parent peptide and the novel peptides dCATH-A1, dCATH-A2, dCATH-A3, dCATH-A4, dCATH-A5, dCATH-A6, and dCATH-A7 were analyzed using flow cytometry.
Specifically, Acinetobacter baumannii was treated with each peptide at twice the minimum inhibitory concentration (MIC), followed by incubation at 37° C. for 10 minutes. The supernatant was then removed by centrifugation at 10,000 rpm, and the bacterial cells were stained with propidium iodide (PI) at a concentration of 10 μg/mL at 4° C. for 30 minutes. Unbound PI was removed by centrifugation, and 1 mL of phosphate-buffered saline (PBS) was added to disperse any cell clumps. The effect of the peptides on the bacterial membrane was then assessed using a Beckman flow cytometer.

SMILES	MIC [2]	MIC [3]	MIC [4]	MIC [5]	MIC [6]	MIC [7]	MIC [8]	MIC [9]	MIC [10]	MIC [11]	MIC [12]	MIC [13]	binding to DNA (electrophoresis) (plasmid DNA (pRSETB))	MBIC [1]	membrane damage in Acinetobacter baumannii (shift in PI fluorescence signal) [14]
CC[C@H](C)[C@H](NC(=O)[C@H](C)NC(=O)[C@H](CC(C)C)NC(=O)[C@@H]1CCCN1C(=O)[C@@H](NC(=O)[C@H](CC(C)C)NC(=O)[C@H](CCC(N)=O)NC(=O)[C@H](C)NC(=O)[C@H](C)NC(=O)[C@H](CCCNC(=N)N)NC(=O)[C@@H](N)CCCCN)C(C)C)C(=O)N[C@@H](CCCCN)C(=O)N[C@H](C(=O)N[C@@H](Cc1ccc(O)cc1)C(=O)N[C@@H](CCCNC(=N)N)C(=O)N[C@@H](C)C(=O)N[C@@H](Cc1c[nH]c2ccccc12)C(=O)N[C@@H](CCCCN)C(=O)N[C@@H](CCCNC(=N)N)C(=O)N[C@@H](CCCNC(=N)N)C(N)=O)[C@@H](C)CC [dCATH-A3] (H-KRAAQLVPLAIKIYRAWKRR-NH2; N-terminus assumed)	2 µM (≈ 4.87 µg/mL)	1 µM (≈ 2.44 µg/mL)	1 µM (≈ 2.44 µg/mL)	1 µM (≈ 2.44 µg/mL)	1 µM (≈ 2.44 µg/mL)	1 µM (≈ 2.44 µg/mL)	1 µM (≈ 2.44 µg/mL)	1 µM (≈ 2.44 µg/mL)	2 µM (≈ 4.87 µg/mL)	1 µM (≈ 2.44 µg/mL)	4 µM (≈ 9.75 µg/mL)	1 µM (≈ 2.44 µg/mL)		2 µM	
CC[C@H](C)[C@H](NC(=O)[C@H](C)NC(=O)[C@H](CC(C)C)NC(=O)[C@@H]1CCCN1C(=O)[C@@H](NC(=O)[C@H](CC(C)C)NC(=O)[C@H](CCC(N)=O)NC(=O)[C@H](C)NC(=O)[C@H](Cc1ccccc1)NC(=O)[C@H](CCCNC(=N)N)NC(=O)[C@@H](N)CCCCN)C(C)C)C(=O)N[C@@H](CCCCN)C(=O)N[C@H](C(=O)N[C@@H](Cc1ccc(O)cc1)C(=O)N[C@@H](CCCNC(=N)N)C(=O)N[C@@H](C)C(=O)N[C@@H](Cc1c[nH]c2ccccc12)C(=O)N[C@@H](CCCCN)C(=O)N[C@@H](CCCNC(=N)N)C(=O)N[C@@H](CCCNC(=N)N)C(N)=O)[C@@H](C)CC [dCATH-A2] (H-KRFAQLVPLAIKIYRAWKRR-NH2; N-terminus assumed)	2 µM (≈ 5.03 µg/mL)	1 µM (≈ 2.51 µg/mL)	1 µM (≈ 2.51 µg/mL)	1 µM (≈ 2.51 µg/mL)	1 µM (≈ 2.51 µg/mL)	1 µM (≈ 2.51 µg/mL)	1 µM (≈ 2.51 µg/mL)	2 µM (≈ 5.03 µg/mL)	1 µM (≈ 2.51 µg/mL)	2 µM (≈ 5.03 µg/mL)	1 µM (≈ 2.51 µg/mL)	1 µM (≈ 2.51 µg/mL)		4 µM	
CC[C@H](C)[C@H](NC(=O)[C@H](C)NC(=O)[C@H](CC(C)C)NC(=O)[C@@H]1CCCN1C(=O)[C@@H](NC(=O)[C@H](CC(C)C)NC(=O)[C@H](CCC(N)=O)NC(=O)[C@H](Cc1c[nH]c2ccccc12)NC(=O)[C@H](C)NC(=O)[C@H](CCCNC(=N)N)NC(=O)[C@@H](N)CCCCN)C(C)C)C(=O)N[C@@H](CCCCN)C(=O)N[C@H](C(=O)N[C@@H](Cc1ccc(O)cc1)C(=O)N[C@@H](CCCNC(=N)N)C(=O)N[C@@H](C)C(=O)N[C@@H](Cc1c[nH]c2ccccc12)C(=O)N[C@@H](CCCCN)C(=O)N[C@@H](CCCNC(=N)N)C(=O)N[C@@H](CCCNC(=N)N)C(N)=O)[C@@H](C)CC [dCATH-A1] (H-KRAWQLVPLAIKIYRAWKRR-NH2; N-terminus assumed)	2 µM (≈ 5.1 µg/mL)	2 µM (≈ 5.1 µg/mL)	2 µM (≈ 5.1 µg/mL)	1 µM (≈ 2.55 µg/mL)	1 µM (≈ 2.55 µg/mL)	2 µM (≈ 5.1 µg/mL)	2 µM (≈ 5.1 µg/mL)	2 µM (≈ 5.1 µg/mL)	2 µM (≈ 5.1 µg/mL)	2 µM (≈ 5.1 µg/mL)	2 µM (≈ 5.1 µg/mL)	2 µM (≈ 5.1 µg/mL)		4 µM	

Continued, in another order:

MIC [2]	MIC [3]	MIC [4]	MIC [5]	MIC [6]	MIC [7]	MIC [8]	MIC [9]	MIC [10]	MIC [11]	MIC [12]	MIC [13]	binding to DNA (electrophoresis) (plasmid DNA (pRSETB))	SMILES	MBIC [1]	membrane damage in Acinetobacter baumannii (shift in PI fluorescence signal) [14]
1 µM (≈ 2.47 µg/mL)	2 µM (≈ 4.94 µg/mL)	2 µM (≈ 4.94 µg/mL)	2 µM (≈ 4.94 µg/mL)	2 µM (≈ 4.94 µg/mL)	2 µM (≈ 4.94 µg/mL)	2 µM (≈ 4.94 µg/mL)	2 µM (≈ 4.94 µg/mL)	2 µM (≈ 4.94 µg/mL)	2 µM (≈ 4.94 µg/mL)	2 µM (≈ 4.94 µg/mL)	2 µM (≈ 4.94 µg/mL)		CC[C@H](C)[C@H](NC(=O)[C@H](C)NC(=O)[C@H](CC(C)C)NC(=O)[C@H](CCCCN)NC(=O)[C@@H](NC(=O)[C@H](CC(C)C)NC(=O)[C@H](CCC(N)=O)NC(=O)[C@H](C)NC(=O)[C@H](C)NC(=O)[C@H](CCCNC(=N)N)NC(=O)[C@@H](N)CCCCN)C(C)C)C(=O)N[C@@H](CCCCN)C(=O)N[C@H](C(=O)N[C@@H](Cc1ccc(O)cc1)C(=O)N[C@@H](CCCNC(=N)N)C(=O)N[C@@H](C)C(=O)N[C@@H](Cc1c[nH]c2ccccc12)C(=O)N[C@@H](CCCCN)C(=O)N[C@@H](CCCNC(=N)N)C(=O)N[C@@H](CCCNC(=N)N)C(N)=O)[C@@H](C)CC [dCATH-A4] (H-KRAAQLVKLAIKIYRAWKRR-NH2; N-terminus assumed)	4 µM	
1 µM (≈ 2.19 µg/mL)	1 µM (≈ 2.19 µg/mL)	1 µM (≈ 2.19 µg/mL)	1 µM (≈ 2.19 µg/mL)	1 µM (≈ 2.19 µg/mL)	1 µM (≈ 2.19 µg/mL)	1 µM (≈ 2.19 µg/mL)	1 µM (≈ 2.19 µg/mL)	1 µM (≈ 2.19 µg/mL)	1 µM (≈ 2.19 µg/mL)	1 µM (≈ 2.19 µg/mL)	1 µM (≈ 2.19 µg/mL)	did bind to DNA	CC[C@H](C)[C@H](NC(=O)[C@H](C)NC(=O)[C@H](CCCCN)NC(=O)[C@H](CCCCN)NC(=O)[C@@H](NC(=O)[C@H](CC(C)C)NC(=O)[C@H](CCC(N)=O)NC(=O)[C@H](C)NC(=O)[C@H](C)NC(=O)[C@H](CCCNC(=N)N)NC(=O)[C@@H](N)CCCCN)C(C)C)C(=O)N[C@@H](CCCCN)C(=O)N[C@@H](CCCCN)C(=O)N[C@@H](Cc1ccc(O)cc1)C(=O)N[C@@H](CCCNC(=N)N)C(=O)N[C@@H](C)C(=O)N[C@@H](Cc1c[nH]c2ccccc12)C(=O)N[C@@H](CCCCN)C(N)=O [dCATH-A7, KRAAQLVKKAIKKYRAWK] (H-KRAAQLVKKAIKKYRAWK-NH2; N-terminus assumed)	2 µM	no damage to the bacterial membrane
1 µM (≈ 2.48 µg/mL)	1 µM (≈ 2.48 µg/mL)	2 µM (≈ 4.97 µg/mL)	1 µM (≈ 2.48 µg/mL)	1 µM (≈ 2.48 µg/mL)	2 µM (≈ 4.97 µg/mL)	1 µM (≈ 2.48 µg/mL)	1 µM (≈ 2.48 µg/mL)	1 µM (≈ 2.48 µg/mL)	1 µM (≈ 2.48 µg/mL)	1 µM (≈ 2.48 µg/mL)	1 µM (≈ 2.48 µg/mL)		CC[C@H](C)[C@H](NC(=O)[C@H](C)NC(=O)[C@H](CCCCN)NC(=O)[C@H](CCCCN)NC(=O)[C@@H](NC(=O)[C@H](CC(C)C)NC(=O)[C@H](CCC(N)=O)NC(=O)[C@H](C)NC(=O)[C@H](C)NC(=O)[C@H](CCCNC(=N)N)NC(=O)[C@@H](N)CCCCN)C(C)C)C(=O)N[C@@H](CCCCN)C(=O)N[C@H](C(=O)N[C@@H](Cc1ccc(O)cc1)C(=O)N[C@@H](CCCNC(=N)N)C(=O)N[C@@H](C)C(=O)N[C@@H](Cc1c[nH]c2ccccc12)C(=O)N[C@@H](CCCCN)C(=O)N[C@@H](CCCNC(=N)N)C(=O)N[C@@H](CCCNC(=N)N)C(N)=O)[C@@H](C)CC [dCATH-A5] (H-KRAAQLVKKAIKIYRAWKRR-NH2; N-terminus assumed)	2 µM	
